According to patent US9126983B2, “Extracts from kibdelos porangium as antibacterial agents” (Merck Sharp & Dohme Corp., priority 2009, dated 2015):
Converted amounts (≈) assume the structure as drawn. Like-named read-outs stand apart in the source and are kept apart here.

Columns and labels:
[1] = tested on: Clostridium difficile (ATCC 700057); assay: Agar dilution MIC, Clostridium difficile ATCC 700057; type: cell-based; details: Clostridioides difficile
Description: (§1) Drug dilutions and drug-supplemented agar plates were prepared manually.
(§2) The growth and test media were those recommended by the Clinical and Laboratory Standards Institute (CLSI) for growth and susceptibility testing of anaerobes. See Clinical and Laboratory Standards Institute (CLSI). Methods for Antimicrobial Susceptibility Testing of Anaerobic Bacteria; Approved Standard—Seventh Edition. CLSI document M11-A7 [ISBN1-56238-626-3]. Clinical and Laboratory Standards Institute, 940 West Valley Road, Suite 1400, Wayne, Pa. 19087-1898 USA, 2007.
(§3) This medium is referred to as Supplemented Brucella Agar (SBA).
(§4) The media were prepared as follows: Brucella agar was weighed and water was added to the final volume minus the volume of the hemin, vitamin K, and lysed sheep blood. The agar was dissolved by boiling. Hemin (5 μg/ml) and vitamin K (1 μg/ml) were added to the agar and it was autoclaved for 23 minutes at 121° C. The agar was allowed to cool to 50° C. and 18.5 ml was dispensed into sterile glass tubes. Immediately prior to pouring the plates 1 ml of lysed sheep blood and 0.5 ml of the appropriate drug dilution were added to the tube. The contents of the tube were gently mixed by inverting the tube, and the drug-supplemented agar was poured into a petri dish. […]
(§5) The inocula for the MIC assay were prepared inside the Bactron II anaerobe chamber, as follows. […] The MIC was read per CLSI guidelines.

[2] = tested on: Clostridium difficile (ATCC 43596); assay: Agar dilution MIC, Clostridium difficile ATCC 43596; type: cell-based; details: Clostridioides difficile, ATCC43596, 48 h
Description: as §1, §2, §3, §4, §5

[3] = tested on: Escherichia coli envA1 tolC (MB5746); details: cell-wall permeable strain, cation-adjusted Mueller Hinton broth
[4] = tested on: Staphylococcus aureus (MB2865); assay: Microbroth dilution MIC, Staphylococcus aureus MB2865; type: cell-based; details: cation-adjusted Mueller Hinton broth, no visible growth
Excerpt: The Staphylococcus aureus strains used were obtained from the Merck Culture Collection, and are identified as MB2865 and MB5957. […] Selected isolates were subcultured onto either […] Isolates were subcultured twice before assay. […] Plates were read to no growth.

[5] = tested on: Enterococcus faecalis (CL8516); assay: Microbroth dilution MIC, Enterococcus faecalis; type: cell-based; details: cation-adjusted Mueller Hinton broth, no visible growth
[6] = tested on: Bacillus subtilis (MB964); assay: Microbroth dilution MIC, Bacillus subtilis; type: cell-based; details: cation-adjusted Mueller Hinton broth, no visible growth; for MIC: read-out: MIC-100
Excerpt: (§6) Selected isolates were subcultured onto either […] […] Isolates were subcultured twice before assay. […] Plates were read to no growth.

[7] = tested on: Candida albicans (MY1055); assay: Microbroth dilution MIC, Candida albicans control; type: cell-based; details: Candida albicans (MY1055) control strain, RPMI 1640; for MIC: read-out: MIC-100
Excerpt: as §6

[8] = tested on: Streptococcus pneumoniae (CL2883); assay: Microbroth dilution MIC, Streptococcus pneumoniae; type: cell-based; details: cation-adjusted Mueller Hinton broth + lysed horse blood
[9] = tested on: Haemophilus influenzae (MB4572); assay: Microbroth dilution MIC, Haemophilus influenzae; type: cell-based; details: Haemophilus test medium; for MIC: read-out: MIC-100
Excerpt: The strain of Haemophilus influenzae is a mouse pathogen used for in vivo testing at Merck. Selected isolates were subcultured onto either […] […] Isolates were subcultured twice before assay. […] Plates were read to no growth.

[10] = tested on: Clostridium difficile (ATCC 700057); details: published CLSI quality control range; cited from earlier work
[11] = tested on: Escherichia coli envA1 tolC (MB5746); assay: microbe, parasite or virus in culture; details: read-out: MIC-100

SMILES: Cc1ncc([N+](=O)[O-])n1CCO [Metronidazole]
- MIC ([1]; ATCC700057, Clostridium difficile (ATCC 700057), agar dilution, Supplemented Brucella Agar, anaerobic, 35° C., 48 h, read-out: MIC): 0.25 µg/mL (≈ 1.46 µM)
- MIC [2]: 0.25 µg/mL (≈ 1.46 µM)

SMILES: CC1(C)S[C@@H]2[C@H](NC(=O)Cc3ccccc3)C(=O)N2[C@H]1C(=O)O [Penicillin G]
- MIC-100 [3]: 8 µg/mL (≈ 23.9 µM)
- MIC-100 [4]: <0.06 µg/mL
- MIC-100 [5]: 0.5 µg/mL (≈ 1.5 µM)
- MIC-100 [6]: <0.06 µg/mL
- MIC-100 [7]: >64 µg/mL
- MIC-100 [8]: <0.06 µg/mL
- MIC-100 [9]: 0.25 µg/mL (≈ 0.748 µM)

SMILES: CN[C@H](CC(C)C)C(=O)N[C@H]1C(=O)N[C@@H](CC(N)=O)C(=O)N[C@H]2C(=O)N[C@H]3C(=O)N[C@H](C(=O)N[C@H](C(=O)O)c4cc(O)cc(O)c4-c4cc3ccc4O)[C@H](O)c3ccc(c(Cl)c3)Oc3cc2cc(c3O[C@@H]2O[C@H](CO)[C@@H](O)[C@H](O)[C@H]2O[C@H]2C[C@](C)(N)[C@H](O)[C@H](C)O2)Oc2ccc(cc2Cl)[C@H]1O [Vancomycin, vancomycin]
- MIC ([1]; ATCC700057, 48 h): 2 µg/mL (≈ 1.38 µM)
- CLSI quality control range (MIC) [10]: 2 (0.5-4)^1 μg/mL
- MIC [2]: 1 µg/mL (≈ 0.69 µM)

SMILES: CC[C@H]1OC(=O)[C@H](C)[C@@H](O[C@H]2C[C@@](C)(OC)[C@@H](O)[C@H](C)O2)[C@H](C)[C@@H](O[C@@H]2O[C@H](C)C[C@H](N(C)C)[C@H]2O)[C@](C)(OC)C[C@@H](C)C(=O)[C@H](C)[C@@H](O)[C@]1(C)O [Clarithromycin]
- MIC ([4]; read-out: MIC-100): 0.12 µg/mL (≈ 0.16 µM)
- MIC ([5]; read-out: MIC-100): 2 µg/mL (≈ 2.67 µM)
- MIC [6]: 0.06 µg/mL (≈ 0.0802 µM)
- MIC [7]: > 16 µg/mL
- MIC ([8]; read-out: MIC-100): 0.03 µg/mL
- MIC [9]: 4 µg/mL (≈ 5.35 µM)
- MIC [11]: 0.12 µg/mL (≈ 0.16 µM)

SMILES: O=C(O)c1cn(C2CC2)c2cc(N3CCNCC3)c(F)cc2c1=O [Ciprofloxacin]
- MIC [6]: 0.06 µg/mL (≈ 0.181 µM)
- MIC [7]: > 16 µg/mL
- MIC [9]: < 0.015 µg/mL
